US20230414634A1, “METHODS FOR TREATING CHOLESTATIC PRURITUS” (GlaxoSmithKline Intellectual Property (No.2) Limited, priority 2020, published 2023)

Tests used:
[1] = system: PBC patients with pruritus; test: Phase 2a crossover clinical study BAT117213 (NCT01899703) of GSK672 versus placebo; assay type: in vivo, human
Experimental: A Phase 2a clinical study (NCT01899703; GSK study BAT117213) was carried out to investigate the safety, tolerability, and effect of repeat doses of GSK672 administration in patients with cholestatic pruritus in Primary Biliary Cholangitis (PBC). The results of this study have been summarized and published on clintrials.gov (NCT01899703).
A phase 2 double-blind, randomised, placebo controlled, crossover trial in PBC patients with pruritus was conducted at two specialist PBC centres in the United Kingdom between March 2014 and November 2015. Subjects received oral 45 to 90 mg GSK672 (45 mg BID for Day 1 to 3 and 90 mg BID for Days 4 to 14) and placebo twice daily for 14 days, in a crossover sequence.
The three different itch rating scales were employed: 10-point NRS, 5D Itch Scale and PBC-40.
The primary end point was safety (measured by clinical and laboratory assessments and adverse events (AEs)) and tolerability. Secondary end points were: i) changes in pruritus scores from baseline measured using a 0 to 10 numerical rating scale (NRS) completed twice daily and PBC-40 itch domain scores and 5-D itch scale and ii) changes in serum levels of total bile acids and C4. Serum levels of ATX activity and FGF-19 were measured at baseline and at the end of each treatment period.
An analysis was carried out as to the effect of 90 mg BID. No analysis was carried out as to the effect of 45 mg BID as this dose was administered for Days 1 to 3 in order to ease patients onto the higher 90 mg BID dose.

[2] = system: patients with PBC and cholestatic pruritus; test: GLIMMER Phase 2b study: safety and tolerability (adverse events, Safety population); assay type: in vivo, human
Description: Secondary and exploratory endpoints: itch efficacy, quality of life (PBC-40) and pharmacodynamic biomarkers, and safety and tolerability.
In the GLIMMER trial, once daily dosing (QD) was expected to be the optimum dosing regimen. The rationale for QD was as follows: i) it was considered optimal to administer one dose in the morning alone, avoiding administering a dose at night in order to minimise the known side effect of diarrhoea during the night, and ii) one dose per day is generally expected to result in a better patient compliance. The tablet sizes employed in the trial were 10 mg and 45 mg which allowed administration of different dose sizes by combining tablets.
As illustrated in FIG. 1(i), the initial dose sizes were: placebo, 20 mg QD, 90 mg QD and 180 mg QD. Also included was a dose size of 90 mg BID which was evaluated in the earlier Phase 2a study. […] This warranted a further investigation of twice daily dosing. It was decided to add a new 40 mg BID group, and to cease the 20 mg QD dose.

CCCC[C@]1(CC)CS(=O)(=O)c2cc(CNC(CC(=O)O)CC(=O)O)c(OC)cc2[C@@H](c2ccccc2)N1 [linerixibat]
pruritus severity compared to placebo (NRS, 5D Itch Scale and PBC-40) ([1]; 90 mg BID, 22 subjects with PBC pruritus): statistically significant decrease
reduction in itch intensity as compared to placebo ([1]; 90 mg BID, 14 day crossover): 71%
itch intensity, PBC-40 itch domain, compared to placebo ([1]; 90 mg BID, 95% CI: −0.94 to −0.24): −0.59
itch intensity, 5-D itch, compared to placebo ([1]; 90 mg BID, 95% CI: −6.60 to −2.49): −4.55
itch intensity as measured by NRS, compared to placebo ([1]; 90 mg BID, 95%CI: −2.48 to −0.68): −1.58
fatigue, sleep disturbance and overall disability compared to placebo ([1]; human, in vivo): Decreases
time at which reduction of pruritus severity occurred ([1]; human, in vivo): within the first week
tolerability ([1]; two weeks of oral twice daily 90 mg): well tolerated
Abdominal distension: number of patients ([2]; 20 mg QD (N = 14)): 0
Abdominal pain lower: % of patients ([2]; 20 mg QD (N = 14)): (7%)
Abdominal pain lower: number of patients ([2]; 20 mg QD (N = 14)): 1
Abdominal pain upper: % of patients ([2]; 20 mg QD (N = 14)): (14%)
Abdominal pain upper: number of patients ([2]; 20 mg QD (N = 14)): 2
Abdominal pain: % of patients ([2]; 20 mg QD (N = 14)): (14%)
Abdominal pain: number of patients ([2]; 20 mg QD (N = 14)): 2
Adverse events Main Study, ANY EVENT: % of patients ([2]; 20 mg QD (N = 14)): (57%)
Adverse events Main Study, ANY EVENT: number of patients ([2]; 20 mg QD (N = 14)): 8
Diarrhoea: % of patients ([2]; 20 mg QD (N = 14)): (36%)
Diarrhoea: number of patients ([2]; 20 mg QD (N = 14)): 5
Dry mouth: % of patients ([2]; 20 mg QD (N = 14)): (14%)
Dry mouth: number of patients ([2]; 20 mg QD (N = 14)): 2
Flatulence: % of patients ([2]; 20 mg QD (N = 14)): (7%)
Flatulence: number of patients ([2]; 20 mg QD (N = 14)): 1
Gastrointestinal disorders, Any event: % of patients ([2]; 20 mg QD (N = 14)): (50%)
Gastrointestinal disorders, Any event: number of patients ([2]; 20 mg QD (N = 14)): 7
Gastrooesophageal reflux disease: % of patients ([2]; 20 mg QD (N = 14)): (7%)
Gastrooesophageal reflux disease: number of patients ([2]; 20 mg QD (N = 14)): 1
Nausea: % of patients ([2]; 20 mg QD (N = 14)): (7%)
Nausea: number of patients ([2]; 20 mg QD (N = 14)): 1
Vomiting: % of patients ([2]; 20 mg QD (N = 14)): (7%)
Vomiting: number of patients ([2]; 20 mg QD (N = 14)): 1
gastrointestinal tolerability data ([2]; 40 mg BID versus higher doses): favored 40 mg BID dosing over higher doses
Abdominal distension: number of patients ([2]; 90 mg BID (N = 13)): 0
Abdominal pain upper: number of patients ([2]; 90 mg BID (N = 13)): 0
Abdominal pain: number of patients ([2]; 90 mg BID (N = 13)): 1
Adverse events Main Study, ANY EVENT: % of patients ([2]; 90 mg BID (N = 13)): (69%)
Adverse events Main Study, ANY EVENT: number of patients ([2]; 90 mg BID (N = 13)): 9
Diarrhoea: number of patients ([2]; 90 mg BID (N = 13)): 5
Dry mouth: number of patients ([2]; 90 mg BID (N = 13)): 0
Flatulence: number of patients ([2]; 90 mg BID (N = 13)): 0
Gastrointestinal disorders, Any event: number of patients ([2]; 90 mg BID (N = 13)): 5
Gastrooesophageal reflux disease: number of patients ([2]; 90 mg BID (N = 13)): 0
Nausea: % of patients ([2]; 90 mg BID (N = 13)): (15%)
Nausea: number of patients ([2]; 90 mg BID (N = 13)): 2
Vomiting: % of patients ([2]; 90 mg BID (N = 13)): (8%)
Vomiting: number of patients ([2]; 90 mg BID (N = 13)): 1
tolerability at interim analysis ([2]; 90 mg BID versus 180 mg QD): better tolerated than 180 mg QD
Abdominal distension: % of patients ([2]; 90 mg QD (N = 12)): (8%)
Abdominal distension: number of patients ([2]; 90 mg QD (N = 12)): 1
Abdominal pain lower: % of patients ([2]; 90 mg QD (N = 12)): (8%)
Abdominal pain lower: number of patients ([2]; 90 mg QD (N = 12)): 1
Abdominal pain: % of patients ([2]; 90 mg QD (N = 12)): (8%)
Abdominal pain: number of patients ([2]; 90 mg QD (N = 12)): 1
Adverse events Main Study, ANY EVENT: % of patients ([2]; 90 mg QD (N = 12)): (75%)
Adverse events Main Study, ANY EVENT: number of patients ([2]; 90 mg QD (N = 12)): 9
Diarrhoea: % of patients ([2]; 90 mg QD (N = 12)): (50%)
Diarrhoea: number of patients ([2]; 90 mg QD (N = 12)): 6
Dry mouth: % of patients ([2]; 90 mg QD (N = 12)): (8%)
Dry mouth: number of patients ([2]; 90 mg QD (N = 12)): 1
Flatulence: number of patients ([2]; 90 mg QD (N = 12)): 0
Gastrointestinal disorders, Any event: % of patients ([2]; 90 mg QD (N = 12)): (50%)
Gastrointestinal disorders, Any event: number of patients ([2]; 90 mg QD (N = 12)): 6
Gastrooesophageal reflux disease: number of patients ([2]; 90 mg QD (N = 12)): 0
Nausea: number of patients ([2]; 90 mg QD (N = 12)): 0
Vomiting: number of patients ([2]; 90 mg QD (N = 12)): 0
Abdominal distension: % of patients ([2]; 180 mg QD (N = 17)): (6%)
Abdominal pain lower: number of patients ([2]; 180 mg QD (N = 17)): 0
Abdominal pain upper: % of patients ([2]; 180 mg QD (N = 17)): (6%)
Abdominal pain: number of patients ([2]; 180 mg QD (N = 17)): 5
Adverse events Main Study, ANY EVENT: % of patients ([2]; 180 mg QD (N = 17)): (82%)
Adverse events Main Study, ANY EVENT: number of patients ([2]; 180 mg QD (N = 17)): 14
Diarrhoea: number of patients ([2]; 180 mg QD (N = 17)): 10
Dry mouth: number of patients ([2]; 180 mg QD (N = 17)): 0
Flatulence: % of patients ([2]; 180 mg QD (N = 17)): (6%)
Gastrointestinal disorders, Any event: number of patients ([2]; 180 mg QD (N = 17)): 14
Gastrooesophageal reflux disease: number of patients ([2]; 180 mg QD (N = 17)): 0
Nausea: % of patients ([2]; 180 mg QD (N = 17)): (6%)
Nausea: number of patients ([2]; 180 mg QD (N = 17)): 1
Vomiting: % of patients ([2]; 180 mg QD (N = 17)): (12%)
Vomiting: number of patients ([2]; 180 mg QD (N = 17)): 2
most common AE ([2]; in vivo): diarrhea
